Article PMC7614683, “A small molecule PI3Kα activator for cardioprotection and neuroregeneration” (Nature, 2023)

Legend:
[1] = system: p110α-mutants D603K, D603A, 603DCN_AAA605, D603A/F1016S, L1006R, F1016S, L1006R/F1016S; test: ADP-Glo catalytic activity, mutants in the 1938-binding pocket; assay type: biochemical, human; details: all mutants
Protocol: Expression and purification of mutants resistant to 1938 were performed as follows. Sf9 insect cells (1.5 L) were cultured in Insect-XPRESS with L-Glutamine medium (Lonza BE12-730Q) at 27°C and co-infected with baculovirus encoding the regulatory p85α-subunit [LMB-MRC plasmid OP809] and the catalytic subunit p110α-D603K [LMB-MRC plasmid OP895], D603A [OP900], 603DCN_AAA605 [OP894], D603A/F1016S [OP901], L1006R [OP897], F1016S [OP898], L1006R/F1016S [OP899] at a density of 1.6 × 10^6 cells/ml. The culture was incubated for 47 h after infection, cells were collected, flash-frozen in liquid N2 and stored at -80°C. For purification, cell pellets were resuspended in 50 ml of lysis buffer (20 mM Tris, 150 mM NaCl, 5% glycerol, 1 mM TCEP, pH 8.0) containing EDTA-free Protease inhibitor tablets (1 tablet per 50 ml of solution), 0.5 mM PEFA and 5 μl of Piece® Universal Nuclease For Cell Lysis. The suspension was sonicated for 3 min on ice, with 10 sec on and 10 sec off. […]
For characterisation of the effects of 1938 on in vitro PI3K enzymology, all reactions were performed at room temperature with 384 white-polystyrene plates (Corning #3574). […] Data was expressed as velocity (nmol of ADP generated/nmol of enzyme/sec). […] Luminescence was read using a PHERAstar® plate reader with software version 5.41, and analyses were performed using GraphPad Prism 8/9.

[2] = biological target: T1, mTORC1 (mTOR/RAPTOR/LST8 complex) (Homo sapiens, UniProt P42345); test: mTORC1 in vitro kinase assay (Phos-tag gel); assay type: biochemical; details: 200 μM 1938
T1 construct: made in house
Protocol: 133 protein kinases and 7 lipid kinases were counterscreened, with 1938 used at 1 μM, using the Adapta, Lantha and Z-LYTE assays (SelectScreen Kinase Profiling Service; Thermofisher – experimental details of these assays can be found here: https://www.thermofisher.com/uk/en/home/industrial/pharma-biopharma/drug-discovery-development/target-and-lead-identification-and-validation/kinasebiology/kinase-activity-assays.html. The tree represention in KinMap[59] generated courtesy of Cell Signaling Technology, Inc. (www.cellsignal.com). mTORC1 (mTOR/RAPTOR/LST8) protein complex and ATM kinase and substrates were produced as previously described[57],[60]. Screening of 1938 was conducted using SuperSep Phos-Tag 50 μmol/l 100 x 100 x 6.6 mm 17-well (192-18001/199-18011) gels. For ATM assays, 100 nM ATM was incubated for 30 min at 30°C with 5 μM GST-p53 and 1 mM ATP, in the absence or presence of 200 μM 1938 in ATM Kinase Buffer (50 mM HEPES pH 7.5, 100 mM NaCl, 10% glycerol, 2 mM […], 5 mM MgCl2). As a positive control for ATM activation, the same reaction was carried out with 100 nM ATM/5 μM GST-p53/1 mM ATP in the presence of 100 nM Mre11-Rad50-Nbs1 (MRN) complex, a known activator of ATM[61]. […] Gels were then stained using InstantBlue™ Coomassie, and quantified using BioRad Image Lab Software. […]

## CCN1CCN(c2ccc(Nc3cc(Nc4cccc5c4N(C(C)=O)CC5)ccn3)cc2)CC1 [Compound 1938]
[1]
  activation of 1938-binding pocket p110α-mutants: resistant to activation by 1938
[2]
  effect on mTORC1 activity: did not affect the activity
